Data set [1] has as its system THP1 cells. Put plainly: Trypan blue assay, cell viability. In kind it is cell-based. As to conditions: Homo sapiens, THP-1, 48 h, average of three experiments. The protocol:
(§1) In order to determine the anticancer potency, the synthesized oxindole derivatives were evaluated for anti-cancer activity various different human cancer cell lines, Leukemic Cancer (THP1), human breast cancer (MDA-MB-231 and MCF-7), human cervix carcinoma cells (HeLa), prostate cancer (DU-145) cellS by using standard Trypan blue and SRB assays. The preliminary anticancer activity for all the synthesized compounds was done at 10 μM concentration and cell inhibition was determined. […] The experiment was repeated thrice and the average values were taken.
The assay was carried out in a 24 well flat-bottomed microtiter tissue culture plate. THP1 cells were seeded in the plates with a density of 4×10^4 cells/well (counted by tryphan blue exclusion dye method). Compounds were added to obtain a concentration of 10 μM. Sunitinib was used as positive control. Plates were incubated for 48 h at 37° C. in a humidified incubator with 5% CO2. At the end of the treatments, cells (THP1) were resuspended in 0.4% trypan blue and percent cell viability was counted using countess cell chamber (Life Technologies).

The next data set deals with MCF-7 cells. Briefly: SRB assay, cell viability. The data set is classed as cell-based. As to conditions: Homo sapiens, MCF7, 48 h, average of three experiments. As to the method: as §1
(§2) The assay was carried out in a 24 well flat-bottomed microtiter tissue culture plate. Cells were seeded in the plates with a density of 4×10^4 cells/well (counted by tryphan blue exclusion dye method). After 24 hours media was replaced with fresh media and then compounds were added to obtain a concentrations of 10 μM. Sunitinib was used as positive control. Plates were incubated for 48 h at 37° C. in a humidified incubator with 5% CO2. After 48 hours without removing the cell culture supernatant, 500 μl of cold 10% (wt/vol) TCA was added to each well, and the plates were incubated at 4° C. for 1 h. The plates were washed for four times with water then rinsed with water several times to remove TCA, serum, proteins and excess water was removed using paper towels and air dried. 100 μl of 0.4% (wt/vol in 1% acetic acid) SRB solution was added to each well. Plates were left at room temperature for 30 min and then the plates were quickly rinsed for four times with 1% (vol/vol) acetic acid to remove unbound dye were and then air dried until no moisture was visible. 100 μl of 10 mM Tris base solution (pH 10.5) was added to each well and shake for 5 min to solubilize the protein-bound dye. Optical density was measured at 564 nm in a micro plate reader.

Another data set relates to DU-145 cells. Put plainly: SRB assay, cell viability. As to conditions: Homo sapiens, 48 h, average of three experiments, read-out: DU145 Cell Viability at 10 μM. The data set is classed as cell-based. The protocol:
as §1, §2
On the technique in general: Sulforhodamine B stains cellular protein and so reports cell mass.

A further data set has as its system HeLa cells. Briefly: SRB assay, cell viability. The data set is classed as cell-based. As to conditions: Homo sapiens, 48 h, average of three experiments. As to the method: as §1, §2
The next data set has as its system MDA-MB-231 cells. Briefly: SRB assay, cell viability. As to conditions: Homo sapiens, 48 h, average of three experiments. The data set is classed as cell-based. The protocol:
as §1, §2

The subject of data set [2] is THP1 cells. In kind it is cell-based, human. As to conditions: THP-1 cells, 10 μM, 24 h; untreated cells 68.3%. The protocol:
To understand the anticancer activity mechanism of the synthesized oxindole derivatives, we analysed the cell cycle alteration phase distribution of the cells by treating THP1 cells with oxindole derivatives at 10 μM, for 24 h and analyzed by flow cytometry. Treatment of THP-1 cells with compounds 2b, 3d, 3e, 3g, 3h, 3i, 3j and 3k caused an accumulation of 98.5%, 94.3%, 96.7%, 97%, 98%, 83%, 93.5%, 98.1% cells in the G0/G1 phase respectively as compared to 68.3% in untreated cells and 99.5% in Sunitinib treated cells. […] (Fig. x and Table .y).
The THP1 cells were treated with the active compounds at […] and incubated for about 24 h. The cells were fixed in ice cold ethanol solvent at 4° C. for about 30 minutes. The ethanol was removed and cells were treated with 1 mL of DNA staining solution (2 mg of RNase and 0.2 mg of propidium iodide (PI)) for 30 minutes. The DNA content was measured by flow cytometry (BD FACS C anto II). Results were analysed using FCS express 4 plus software.

Data set [3] deals with VEGF tyrosin kinase (VEGFR). Put plainly: VEGFR activity, phosphotyrosine (PY) cell-based ELISA. As to conditions: 10 μM, 60 min pretreatment, VEGF stimulation. The protocol: Briefly, cells at 60-75% confluence were placed in serum-free medium for 18 h to reduce the background of phosphorylation. Cells were then pretreated for 60 min with 2b, 3d, 3e, 3g, 3h, 3i, 3j and 3k compounds at 10 μM concentration followed by an optimized dose of purified growth factor (VEGF). The reaction was stopped, and cells were permeabilized by quickly removing the media from the cells and adding ice-cold Tris-buffered saline (TBS) containing 0.05% triton X-100, protease inhibitor cocktail, and tyrosine phosphatase inhibitor cocktail (both from Sigma Chemical). The TBS solution was then removed, and cells were fixed to the plate by heat and further incubation in 70% ethanol. Cells were further exposed to block (TBS with 1% BSA) and washed, and then a horseradish peroxidase (HRP)-conjugated phosphotyrosine antibody was added. The antibody was removed; cells were washed again and exposed to an enhanced luminol ELISA substrate, and light emission was measured using a plate reader. The known RTK-specific kinase inhibitor (Sunitinib) was used as positive control for kinase inhibition.
(An ELISA detects its analyte on a solid surface through an enzyme-linked reagent.)

This note sets out measurements from patent US10343991B2, “C5, C6 substituted and/or fused oxindoles as anti-cancer agents and process for preparation thereof” (Council of Scientific & Industrial Research, priority 2016, dated 2019).

For orientation: viability means a read-out of living cells in per cent, often relative to untreated cells. A word on the melting point: it is the temperature, or range, at which the solid turns liquid.

In turn, `O=C1Cc2cc(C(C#Cc3ccccc3)c3ccccc3)c(O)cc2N1` (stereo not drawn) [Compound 2a, 5-(1,3-Diphenylprop-2-yn-1-yl)-6-hydroxyindolin-2-one] came in with a melting point of 195 to 196 °C. In the data set on THP1 cells [1], the viability at 10 µM stood at 34.5%. Besides, in the data set on MCF-7 cells, the viability at 10 µM stood at 39.7%. Moreover, the viability at 10 µM in the data set on DU-145 cells stood at 41.7%. Further, in the data set on HeLa cells, the viability at 10 µM is 36.6%. In addition, the viability at 10 µM in the data set with MDA-MB-231 cells was found to be 71.3%.
Consider `COc1cccc(C(C#CCOCc2ccccc2)c2cc3c(cc2O)NC(=O)C3)c1OC` (stereo not drawn) [Compound 2b, 5-(4-(Benzyloxy)-1-(2,3-dimethoxyphenyl)but-2-ynyl)-6-hydroxyindolin-2-one], for which the melting point was in the range of 177 to 179 °C. The viability at 10 µM with THP1 cells [1] was 48.5%. Moreover, the “accumulation of cells in the G0/G1 phase” value in the data set on THP1 cells [2] was 98.5%. Moreover, the viability at 10 µM in the data set with MCF-7 cells is 39.8%. Further, the viability at 10 µM with DU-145 cells worked out at 51.2%. In the data set with HeLa cells, the viability at 10 µM amounted to 40.4%. Besides, the viability at 10 µM with MDA-MB-231 cells was determined as 42.8%. Moreover, the “inhibitory activity of VEGF tyrosin kinase activity” value in data set [3] was “inhibitory activity”.
Regarding `O=C1Cc2cc3c(-c4ccccc4)c(Cc4ccccc4)oc3cc2N1` [Compound 3a, 2-Benzyl-3-phenyl-5H-furo[3,2-f]indol-6(7H)-one], the melting point was in the range of 196 to 198 °C. The viability at 10 µM with THP1 cells [1] was determined as 53.6%. Moreover, the viability at 10 µM in the data set with MCF-7 cells amounted to 51.1%. Moreover, in the data set with DU-145 cells, the viability at 10 µM came out at 21.7%. Also, the viability at 10 µM with HeLa cells is 27.6%. Also, in the data set with MDA-MB-231 cells, the viability at 10 µM was 53.8%.
On to `COc1cccc(-c2c(CCOCc3ccccc3)oc3cc4c(cc23)CC(=O)N4)c1OC` [Compound 3b, 2-(2-(Benzyloxy)ethyl)-3-(2,3-dimethoxyphenyl)-5H-furo [3,2-f] indol-6(7H)-one], for which the melting point lay in the range of 120 to 122 °C. The viability at 10 µM with THP1 cells [1] came to 75.5%. The viability at 10 µM in the data set on MCF-7 cells came to 49.3%. Besides, the viability at 10 µM in the data set on DU-145 cells is 69.2%. Besides, the viability at 10 µM in the data set with HeLa cells is 40.5%. Besides, the viability at 10 µM in the data set on MDA-MB-231 cells was 72.5%.
Take `Cc1cc(C)c(/C=C2\C(=O)Nc3cc(O)c(C(C#Cc4ccccc4)c4ccccc4)cc32)[nH]1` (stereo not drawn) [Compound 3c, (Z)-3-((3,5-dimethyl-1H-pyrrol-2-yl)methylene)-5-(1,3-diphenylprop-2-yn-1-yl)-6-hydroxyindolin-2-one]: the melting point was in the range of 173 to 179 °C. Moreover, the viability at 10 µM with THP1 cells [1] is 125%. Besides, the viability at 10 µM in the data set on MCF-7 cells turned out to be 49.9%. Moreover, the viability at 10 µM with DU-145 cells was found to be 81.3%. In the data set on HeLa cells, the viability at 10 µM is 78.2%. Besides, the viability at 10 µM in the data set with MDA-MB-231 cells was determined as 74.5%.
Consider `Cc1ccsc1/C=C1\C(=O)Nc2cc(O)c(C(C#Cc3ccccc3)c3ccccc3)cc21` (stereo not drawn) [Compound 3d, (Z)-5-(1,3-diphenylprop-2-yn-1-yl)-6-hydroxy-3-((3-methylthiophen-2-yl)methylene)indolin-2-one], for which the melting point was 182 to 185 °C. For the same compound, the viability at 10 µM in the data set on THP1 cells [1] was 33.3%. In the data set with THP1 cells [2], the “accumulation of cells in the G0/G1 phase” value is 94.3%. In addition, the viability at 10 µM in the data set with MCF-7 cells came out at 30.7%. The viability at 10 µM in the data set on DU-145 cells is 45.5%. The viability at 10 µM in the data set on HeLa cells amounted to 71.3%. Further, the viability at 10 µM in the data set on MDA-MB-231 cells came out at 35.9%. Moreover, in data set [3], the “inhibitory activity of VEGF tyrosin kinase activity” value is on record as “inhibitory activity”.
Take `CN(C)c1ccc(/C=C2\C(=O)Nc3cc(O)c(C(C#Cc4ccccc4)c4ccccc4)cc32)c2ccccc12` (stereo not drawn) [Compound 3e, (Z)-3-((4-(dimethylamino)naphthalen-1-yl)methylene)-5-(1,3-diphenylprop-2-yn-1-yl)-6-hydroxyindolin-2-one]: the melting point lay in the range of 188 to 192 °C. The viability at 10 µM in the data set with THP1 cells [1] turned out to be 125%. Also, in the data set on THP1 cells [2], the “accumulation of cells in the G0/G1 phase” value was 96.7%. Moreover, the viability at 10 µM with MCF-7 cells is 78.2%. Moreover, the viability at 10 µM with DU-145 cells was 48.2%. Also, the viability at 10 µM in the data set with HeLa cells worked out at 153%. Besides, the viability at 10 µM in the data set on MDA-MB-231 cells was 85.9%. In addition, the “inhibitory activity of VEGF tyrosin kinase activity” value in data set [3] is given as “inhibitory activity”.
For `COc1cccc(C(C#CCOCc2ccccc2)c2cc3c(cc2O)NC(=O)/C3=C\c2[nH]c(C)cc2C)c1OC` (stereo not drawn) [Compound 3f], the melting point was in the range of 181 to 183 °C. The viability at 10 µM with THP1 cells [1] stood at 30.2%. Moreover, in the data set on MCF-7 cells, the viability at 10 µM is 33.1%. For the same compound, the viability at 10 µM in the data set with DU-145 cells was found to be 62.1%. Besides, the viability at 10 µM in the data set with HeLa cells came to 39.4%. Further, in the data set with MDA-MB-231 cells, the viability at 10 µM worked out at 37.7%.
Consider `COc1cccc(-c2c(COCc3ccccc3)oc3cc4c(cc23)/C(=C/c2[nH]c(C)cc2C)C(=O)N4)c1OC` [Compound 3k, (Z)-2-((benzyloxy)methyl)-3-(2,3-dimethoxyphenyl)-5-((3,5-dimethyl-1H-pyrrol-2-yl)methylene)-5H-furo[3,2-f]indol-6(7H)-one], for which the viability at 10 µM in the data set with THP1 cells [1] came out at 80.5%; with MCF-7 cells, 43.1%; with DU-145 cells it was 62.7%; in the data set on HeLa cells it was 38.9%; in the data set with MDA-MB-231 cells, 109%. In addition, the “accumulation of cells in the G0/G1 phase” value in the data set with THP1 cells [2] is given as 98.1%. Further, the “inhibitory activity of VEGF tyrosin kinase activity” value in data set [3] is given as “inhibitory activity”.
As to `COc1cccc(-c2c(COCc3ccccc3)oc3cc4c(cc23)/C(=C/c2sccc2C)C(=O)N4)c1OC` [Compound 3l, (Z)-2-((benzyloxy)methyl)-3-(2,3-dimethoxyphenyl)-5-((3-methylthiophen-2-yl)methylene)-5H-furo[3,2-f]indol-6(7H)-one], the viability at 10 µM in the data set on THP1 cells [1] worked out at 106%; in the data set on MCF-7 cells, 79%; with DU-145 cells, 49.7%; in the data set with HeLa cells, 52%; in the data set on MDA-MB-231 cells, 111%.
Consider `Cc1ccc(S(=O)(=O)n2cc(-c3c(Cc4ccccc4)oc4cc5c(cc34)/C(=C/c3[nH]c(C)cc3C)C(=O)N5)c3ccccc32)cc1` [Compound 3m, (Z)-2-benzyl-5-((3,5-dimethyl-1H-pyrrol-2-yl)methylene)-3-(1-tosyl-1H-indol-3-yl)-5H-furo[3,2-f]indol-6(7H)-one], for which the melting point fell in the range of 174 to 176 °C. In the data set with THP1 cells [1], the viability at 10 µM was determined as 68.2%. For the same compound, in the data set with MCF-7 cells, the viability at 10 µM came out at 71.4%. For the same compound, the viability at 10 µM in the data set on DU-145 cells is 91.7%. For the same compound, the viability at 10 µM in the data set on HeLa cells is 87.6%. In addition, the viability at 10 µM in the data set on MDA-MB-231 cells was 75.5%.
`CCN(CC)CCNC(=O)c1c(C)[nH]c(/C=C2\C(=O)Nc3ccc(F)cc32)c1C` [SUNT, Sunitinib, reference compound]: the viability at 10 µM with THP1 cells [1] turned out to be 35.2%; with MCF-7 cells, 34.3%; with DU-145 cells, 35%; in the data set on HeLa cells, 37.1%; in the data set with MDA-MB-231 cells it was 39.5%. Also, the “accumulation of cells in the G0/G1 phase” value in the data set on THP1 cells [2] was 99.5%.
